# Experimental data from ChEMBL document CHEMBL1127965, “Synthesis of novel monocyclic squalestatin analogues as potential inhibitors of squalene synthase” (Bioorg Med Chem Lett, 1994).
# Target: T1, Squalene synthase (Rattus norvegicus, UniProt Q02769)
# T1 sequence (Q02769 whole entry): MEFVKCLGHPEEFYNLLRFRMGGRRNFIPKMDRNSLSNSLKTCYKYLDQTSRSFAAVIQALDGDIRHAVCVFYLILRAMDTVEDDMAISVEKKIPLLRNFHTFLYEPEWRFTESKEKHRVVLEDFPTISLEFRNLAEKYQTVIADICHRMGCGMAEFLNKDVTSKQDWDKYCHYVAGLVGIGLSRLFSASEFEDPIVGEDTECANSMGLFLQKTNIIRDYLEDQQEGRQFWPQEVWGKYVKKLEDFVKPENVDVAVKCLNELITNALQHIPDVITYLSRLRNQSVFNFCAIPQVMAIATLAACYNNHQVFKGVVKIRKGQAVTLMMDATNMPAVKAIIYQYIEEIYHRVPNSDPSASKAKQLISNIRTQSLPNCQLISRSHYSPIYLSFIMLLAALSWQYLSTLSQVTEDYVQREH
# Assay: In vitro inhibitory activity against rat liver squalene synthase
row,IC50 [µM],Compound
1,0.057,C=C(CCC12CCC(C(=O)O)(O1)C(O)(C(=O)O)C(C(=O)O)O2)[C@@H](OC(C)=O)[C@H](C)Cc1ccccc1 (some centres not stated)
2,8,O=C(O)C1OC(CCCCCCc2ccccc2)OC(C(=O)O)C1(O)C(=O)O (configuration not stated)
